# Reference: patent US8449898B2 (priority 2007, dated 2013)
# Where two headings read alike, the source gives them in different places.
# Assays:
# [1] = system: Phytophthora infestans (the causal agent of tomato late blight); assay: whole plant or invertebrate; type: in vivo; settings: for TLB Obsd: component (b) alone
# [2] = system: Pseudoperonospora cubensis (the causal agent of cucumber downy mildew); assay: Test B: cucumber downy mildew, preventive spray on cucumber seedlings; type: in vivo; settings: for pest or weed control at 200 µg/mL: component (b) alone 200 ppm (Compound 1 0 ppm)
# [3] = Table A, component (b) alone 0.4 ppm
# [4] = Table A, component (b) alone 2 ppm
# [5] = Table A, component (b) alone 10 ppm
# [6] = Table A, component (b) alone 40 ppm
# [7] = Table A, component (b) alone 200 ppm
# [8] = Phytophthora infestans, read-out: TLB Obsd (observed effect, tomato late blight), component (b) alone, 10 ppm
# [9] = Phytophthora infestans, read-out: TLB Obsd (observed effect, tomato late blight), component (b) alone, 40 ppm
# [10] = Pseudoperonospora cubensis, component (b) alone 10 ppm (Compound 1 0 ppm), read-out: CDM Obsd
# [11] = Pseudoperonospora cubensis, component (b) alone 40 ppm (Compound 1 0 ppm), read-out: CDM Obsd
# [12] = Pseudoperonospora cubensis, read-out: CDM Obsd
# [13] = Pseudoperonospora cubensis, component (b) alone, 10 ppm, read-out: CDM Obsd (observed effect, cucumber downy mildew)
# [14] = Pseudoperonospora cubensis, component (b) alone, 40 ppm, read-out: CDM Obsd (observed effect, cucumber downy mildew)
# [15] = Pseudoperonospora cubensis, component (b) alone 0.4 ppm (Compound 1 0 ppm), read-out: CDM Obsd
# [16] = Pseudoperonospora cubensis, component (b) alone 2 ppm (Compound 1 0 ppm), read-out: CDM Obsd
# [17] = Table B, component (b) alone 0.4 ppm
# [18] = Table B, component (b) alone 2 ppm
# [19] = Table B, component (b) alone 10 ppm
# [20] = Table B, component (b) alone 40 ppm
compound,measurement,setting,value
CCCOc1nc2ccc(I)cc2c(=O)n1CCC [proquinazid],TLB Obsd (disease control rating),[1]; [3],0%
same,TLB Obsd (disease control rating),[1]; [4],0%
same,TLB Obsd (disease control rating),[1]; [5],0%
same,TLB Obsd (disease control rating),[1]; [6],24%
same,TLB Obsd (disease control rating),[1]; [7],0%
same,TLB Obsd,[1]; 0.04 ppm,17%
same,TLB Obsd,[1]; 2 ppm,0%
same,TLB Obsd,[1]; 10 ppm,8%
same,TLB Obsd,[1]; 40 ppm,8%
same,TLB Obsd,[1]; 200 ppm,17%
same,CDM Obsd (disease control rating),[2]; [3],47%
same,CDM Obsd (disease control rating),[2]; [4],47%
same,CDM Obsd (disease control rating),[2]; [5],47%
same,CDM Obsd (disease control rating),[2]; [6],47%
same,CDM Obsd (disease control rating),[2]; [7],47%
same,CDM Obsd,"[2]; Table G, component (b) alone at 0.4 ppm",26%
same,CDM Obsd,"[2]; Table G, component (b) alone at 2 ppm",26%
same,CDM Obsd,"[2]; Table G, component (b) alone at 10 ppm",26%
same,CDM Obsd,"[2]; Table G, component (b) alone at 40 ppm",26%
same,CDM Obsd,"[2]; Table G, component (b) alone at 200 ppm",26%
same,CDM Obsd,"[2]; component (b) alone, 0.04 ppm",0%
same,CDM Obsd,"[2]; component (b) alone, 2 ppm",0%
same,CDM Obsd,"[2]; component (b) alone, 10 ppm",0%
same,CDM Obsd,"[2]; component (b) alone, 40 ppm",0%
same,CDM Obsd,"[2]; component (b) alone, 200 ppm",0%
CCCOC(=O)NCCCN(C)C [propamocarb],pest or weed control at 10 ppm,[1]; [8],0%
same,pest or weed control at 40 ppm,[1]; [9],0%
same,pest or weed control at 200 ppm,"[1]; Phytophthora infestans, read-out: TLB Obsd (observed effect, tomato late blight), component (b) alone, 200 ppm",0%
same,pest or weed control at 1000 ppm,"[1]; Phytophthora infestans, read-out: TLB Obsd (observed effect, tomato late blight), component (b) alone, 1000 ppm",38%
same,pest or weed control at 5000 ppm,"[1]; Phytophthora infestans, read-out: TLB Obsd (observed effect, tomato late blight), component (b) alone, 5000 ppm",92%
same,pest or weed control at 10 ppm,"[1]; Phytophthora infestans, read-out: TLB Obsd, Table D, component (b) alone at 10 ppm",6%
same,pest or weed control at 40 ppm,"[1]; Phytophthora infestans, read-out: TLB Obsd, Table D, component (b) alone at 40 ppm",6%
same,pest or weed control at 200 ppm,"[1]; Phytophthora infestans, read-out: TLB Obsd, Table D, component (b) alone at 200 ppm",19%
same,pest or weed control at 1000 ppm,"[1]; Phytophthora infestans, read-out: TLB Obsd, Table D, component (b) alone at 1000 ppm",57%
same,pest or weed control at 5000 ppm,"[1]; Phytophthora infestans, read-out: TLB Obsd, Table D, component (b) alone at 5000 ppm",77%
same,pest or weed control at 10 ppm,"[2]; Pseudoperonospora cubensis, Table D, component (b) alone at 10 ppm, read-out: CDM Obsd",47%
same,pest or weed control at 40 ppm,"[2]; Pseudoperonospora cubensis, Table D, component (b) alone at 40 ppm, read-out: CDM Obsd",47%
same,pest or weed control at 200 ppm,"[2]; Pseudoperonospora cubensis, Table D, component (b) alone at 200 ppm, read-out: CDM Obsd",58%
same,pest or weed control at 1000 ppm,"[2]; Pseudoperonospora cubensis, Table D, component (b) alone at 1000 ppm, read-out: CDM Obsd",76%
same,pest or weed control at 5000 ppm,"[2]; Pseudoperonospora cubensis, Table D, component (b) alone at 5000 ppm, read-out: CDM Obsd",98%
same,pest or weed control at 10 µg/mL,[2]; [10],47%
same,pest or weed control at 40 µg/mL,[2]; [11],47%
same,pest or weed control at 200 µg/mL,[2]; [12],94%
same,pest or weed control at 1000 µg/mL,"[2]; Pseudoperonospora cubensis, component (b) alone 1000 ppm (Compound 1 0 ppm), read-out: CDM Obsd",100%
same,pest or weed control at 5000 µg/mL,"[2]; Pseudoperonospora cubensis, component (b) alone 5000 ppm (Compound 1 0 ppm), read-out: CDM Obsd",100%
same,pest or weed control at 10 ppm,[2]; [13],46%
same,pest or weed control at 40 ppm,[2]; [14],31%
same,pest or weed control at 200 ppm,"[2]; Pseudoperonospora cubensis, component (b) alone, 200 ppm, read-out: CDM Obsd (observed effect, cucumber downy mildew)",86%
same,pest or weed control at 1000 ppm,"[2]; Pseudoperonospora cubensis, component (b) alone, 1000 ppm, read-out: CDM Obsd (observed effect, cucumber downy mildew)",99%
same,pest or weed control at 5000 ppm,"[2]; Pseudoperonospora cubensis, component (b) alone, 5000 ppm, read-out: CDM Obsd (observed effect, cucumber downy mildew)",100%
CON=C(C(=O)OC)c1ccccc1CON=C(C)c1cccc(C(F)(F)F)c1 [trifloxystrobin],pest or weed control at 0.4 ppm,"[1]; Phytophthora infestans, read-out: TLB Obsd (disease control rating), Table C, component (b) alone 0.4 ppm",0%
same,pest or weed control at 2 ppm,"[1]; Phytophthora infestans, read-out: TLB Obsd (disease control rating), Table C, component (b) alone 2 ppm",40%
same,pest or weed control at 10 ppm,"[1]; Phytophthora infestans, read-out: TLB Obsd (disease control rating), Table C, component (b) alone 10 ppm",26%
same,pest or weed control at 40 ppm,"[1]; Phytophthora infestans, read-out: TLB Obsd (disease control rating), Table C, component (b) alone 40 ppm",45%
same,pest or weed control at 200 ppm,"[1]; Phytophthora infestans, read-out: TLB Obsd (disease control rating), Table C, component (b) alone 200 ppm",53%
same,pest or weed control at 0.04 ppm,"[1]; Phytophthora infestans, read-out: TLB Obsd, component (b) alone, 0.04 ppm",0%
same,pest or weed control at 2 ppm,"[1]; Phytophthora infestans, read-out: TLB Obsd, component (b) alone, 2 ppm",0%
same,pest or weed control at 10 ppm,"[1]; Phytophthora infestans, read-out: TLB Obsd, component (b) alone, 10 ppm",72%
same,pest or weed control at 40 ppm,"[1]; Phytophthora infestans, read-out: TLB Obsd, component (b) alone, 40 ppm",38%
same,pest or weed control at 200 ppm,"[1]; Phytophthora infestans, read-out: TLB Obsd, component (b) alone, 200 ppm",25%
same,pest or weed control at 0.4 ppm,"[2]; Pseudoperonospora cubensis, Table C, component (b) alone 0.4 ppm, read-out: CDM Obsd (disease control rating)",47%
same,pest or weed control at 2 ppm,"[2]; Pseudoperonospora cubensis, Table C, component (b) alone 2 ppm, read-out: CDM Obsd (disease control rating)",47%
same,pest or weed control at 10 ppm,"[2]; Pseudoperonospora cubensis, Table C, component (b) alone 10 ppm, read-out: CDM Obsd (disease control rating)",58%
same,pest or weed control at 40 ppm,"[2]; Pseudoperonospora cubensis, Table C, component (b) alone 40 ppm, read-out: CDM Obsd (disease control rating)",94%
same,pest or weed control at 200 ppm,"[2]; Pseudoperonospora cubensis, Table C, component (b) alone 200 ppm, read-out: CDM Obsd (disease control rating)",100%
same,pest or weed control at 0.4 µg/mL,[2]; [15],47%
same,pest or weed control at 2 µg/mL,[2]; [16],47%
same,pest or weed control at 10 µg/mL,[2]; [10],57%
same,pest or weed control at 40 µg/mL,[2]; [11],93%
same,pest or weed control at 200 µg/mL,[2]; [12],100%
same,pest or weed control at 0.04 ppm,"[2]; Pseudoperonospora cubensis, component (b) alone, 0.04 ppm, read-out: CDM Obsd",0%
same,pest or weed control at 2 ppm,"[2]; Pseudoperonospora cubensis, component (b) alone, 2 ppm, read-out: CDM Obsd",0%
same,pest or weed control at 10 ppm,"[2]; Pseudoperonospora cubensis, component (b) alone, 10 ppm, read-out: CDM Obsd",16%
same,pest or weed control at 40 ppm,"[2]; Pseudoperonospora cubensis, component (b) alone, 40 ppm, read-out: CDM Obsd",89%
same,pest or weed control at 200 ppm,"[2]; Pseudoperonospora cubensis, component (b) alone, 200 ppm, read-out: CDM Obsd",100%
benthiovalicarb,TLB Obsd (disease control rating),[1]; [17],53%
same,TLB Obsd (disease control rating),[1]; [18],100%
same,TLB Obsd (disease control rating),[1]; [19],100%
same,TLB Obsd (disease control rating),[1]; [20],100%
same,CDM Obsd (disease control rating),[2]; [17],90%
same,CDM Obsd (disease control rating),[2]; [18],100%
same,CDM Obsd (disease control rating),[2]; [19],100%
same,CDM Obsd (disease control rating),[2]; [20],100%
same,CDM Obsd,[2]; component (b) alone 0.08 ppm (Compound 1 0 ppm),33%
same,CDM Obsd,[2]; component (b) alone 0.4 ppm (Compound 1 0 ppm),86%
same,CDM Obsd,[2]; component (b) alone 2 ppm (Compound 1 0 ppm),100%
same,CDM Obsd,[2]; component (b) alone 10 ppm (Compound 1 0 ppm),100%
same,CDM Obsd,[2]; component (b) alone 40 ppm (Compound 1 0 ppm),100%
COc1ccc(C(=CC(=O)N2CCOCC2)c2ccc(Cl)cc2)cc1OC [dimethomorph],pest or weed control at 0.08 ppm,"[1]; Phytophthora infestans, read-out: TLB Obsd (disease control rating), Table B, component (b) alone 0.08 ppm",9%
same,pest or weed control at 0.4 ppm,"[1]; Phytophthora infestans, read-out: TLB Obsd (disease control rating), Table B, component (b) alone 0.4 ppm",9%
same,pest or weed control at 2 ppm,"[1]; Phytophthora infestans, read-out: TLB Obsd (disease control rating), Table B, component (b) alone 2 ppm",47%
same,pest or weed control at 10 ppm,"[1]; Phytophthora infestans, read-out: TLB Obsd (disease control rating), Table B, component (b) alone 10 ppm",86%
same,pest or weed control at 40 ppm,"[1]; Phytophthora infestans, read-out: TLB Obsd (disease control rating), Table B, component (b) alone 40 ppm",99%
same,pest or weed control at 0.08 ppm,"[1]; Phytophthora infestans, read-out: TLB Obsd (observed effect, tomato late blight), component (b) alone, 0.08 ppm",31%
same,pest or weed control at 0.4 ppm,"[1]; Phytophthora infestans, read-out: TLB Obsd (observed effect, tomato late blight), component (b) alone, 0.4 ppm",62%
same,pest or weed control at 2 ppm,"[1]; Phytophthora infestans, read-out: TLB Obsd (observed effect, tomato late blight), component (b) alone, 2 ppm",95%
same,pest or weed control at 10 ppm,[1]; [8],88%
same,pest or weed control at 40 ppm,[1]; [9],100%
same,pest or weed control at 0.08 ppm,"[2]; Pseudoperonospora cubensis, Table B, component (b) alone 0.08 ppm, read-out: CDM Obsd (disease control rating)",47%
same,pest or weed control at 0.4 ppm,"[2]; Pseudoperonospora cubensis, Table B, component (b) alone 0.4 ppm, read-out: CDM Obsd (disease control rating)",57%
same,pest or weed control at 2 ppm,"[2]; Pseudoperonospora cubensis, Table B, component (b) alone 2 ppm, read-out: CDM Obsd (disease control rating)",70%
same,pest or weed control at 10 ppm,"[2]; Pseudoperonospora cubensis, Table B, component (b) alone 10 ppm, read-out: CDM Obsd (disease control rating)",100%
same,pest or weed control at 40 ppm,"[2]; Pseudoperonospora cubensis, Table B, component (b) alone 40 ppm, read-out: CDM Obsd (disease control rating)",100%
same,pest or weed control at 0.08 µg/mL,"[2]; Pseudoperonospora cubensis, component (b) alone 0.08 ppm (Compound 1 0 ppm), read-out: CDM Obsd",26%
same,pest or weed control at 0.4 µg/mL,[2]; [15],26%
same,pest or weed control at 2 µg/mL,[2]; [16],83%
same,pest or weed control at 10 µg/mL,[2]; [10],100%
same,pest or weed control at 40 µg/mL,[2]; [11],100%
same,pest or weed control at 0.08 ppm,"[2]; Pseudoperonospora cubensis, component (b) alone, 0.08 ppm, read-out: CDM Obsd (observed effect, cucumber downy mildew)",52%
same,pest or weed control at 0.4 ppm,"[2]; Pseudoperonospora cubensis, component (b) alone, 0.4 ppm, read-out: CDM Obsd (observed effect, cucumber downy mildew)",54%
same,pest or weed control at 2 ppm,"[2]; Pseudoperonospora cubensis, component (b) alone, 2 ppm, read-out: CDM Obsd (observed effect, cucumber downy mildew)",88%
same,pest or weed control at 10 ppm,[2]; [13],100%
same,pest or weed control at 40 ppm,[2]; [14],100%
